Results on two molecules are retold here after BindingDB's records for doi:10.1021/ml100192b (2011).

As a reminder, the IC50 is the concentration that gives 50% inhibition. Low values mean higher potency, high ones lower potency.

A short description of assay [1]: Inhibition of maltase in mouse intestinal input by glucose release assay.
Assay [2] in a line: Inhibition of lactase in mouse intestinal input by glucose release assay.

On to `CCCCCCCOCCCCCN1C[C@H](O)[C@@H](O)[C@H](O)[C@H]1CO` [N-Heptoxypentyl-1-deoxynojirimycin], for which the results for the IC50 in assay [1] and in assay [2] were 7 µM and 250 µM, respectively.

In the case of `CCCCCCCOCCCCCN1C[C@H](O)[C@@H](O)[C@H](O)[C@@H]1CO` [N-Heptoxypentyl-L-ido-1-deoxynojirimycin], the IC50 in assay [1] was over 1000 µM; in assay [2] it was 250 µM.
